Laboratory results taken from patent US20230255868A1, “SANITIZING COMPOSITION” (Conopco, Inc., d/b/a UNILEVER, priority 2020, published 2023).

System: Adenovirus
Assay: ASTM E1052-20 microbicides against viruses in suspension
Format: cell-based
Settings: 60 Seconds, remaining virus titre, Control 4.75
Procedure: Skin, as used herein, is meant to include skin on the arms (including underarms), face, feet, neck, chest, hands, legs, buttocks and scalp (including hair). Sanitizing as used herein means a bacteria log kill of at least 2 and a viral log inactivation of at least 2 (both achieved) in less than 3 minutes after topical application to a surface. Sanitizing precursor means a composition which is a concentrate and suitable to be diluted (or hydrated) with water to produce a sanitizing composition ready for use. Combination, as used herein means, total weight of cetrimonium chloride plus benzalkonium chloride. Skin benefit agent means an ingredient suitable to improve a skin characteristic. Surface as used herein includes skin or the surface of an inanimate object such as a table top, computer monitor, door knob, toilet seat, shopping cart handle or even a clothing garment. Surface is also meant to include the coat of an animal such as the fur on a dog and cat. As used herein, surface preferably means human skin, and especially, skin on the face and hands. The dimonium and trimonium compounds used herein are meant to include salts of the same, especially chlorides and bromides of the same. Cationic surfactant, as used herein, is meant to include polyquaternium materials, like for example, polyquaternium-6. In an embodiment of the invention, the sanitizing composition of the present invention is a home care composition like a laundry spray composition suitable to spray clothing and upholstery requiring sanitizing. The home care composition can also be a sanitizing kitchen or bathroom spray composition. […] The composition of the present invention may optionally comprise skin benefit agents added thereto such as emollients, vitamins and/or derivatives thereof, resorcinols, retinoic acid precursors, colorants, moisturizers or humectants, fragrances, sunscreens, a mixture thereof or the like. The skin benefit ingredients may be water or oil soluble. The sanitizing composition, therefore, is an aqueous based composition with a pH from 3.0 to 8.2, and the composition is water continuous. Viscosity, as used herein, is taken with a Brookfield RV spindle 6 at 20 rpm for 30 seconds at 25° C. unless noted otherwise. […] Antimicrobial benefits mean at least a log kill of 2 in under 3 minutes whereby antimicrobial assessment is measured via test method ASTM-E2783-11 (Reapproved 2016) which sets forth the procedure for measuring antimicrobial activity for water miscible compounds using a time kill procedure. Viral (or virus) inactivation is determined by assessing the impact of microbiocides against viruses as set forth in ASTM-1052-20. […]

Row | Structure (SMILES) | ADENOVIRUS Inactivation, Log10 TCID 50/0.1 ml (test substance at 0.05%) | ADENOVIRUS Inactivation, Log10 TCID 50/0.1 ml (test substance at 0.1%)
1 | CCCCCCCCCCCCCCCC[N+](C)(C)C.[Br-] [CTAB, cetrimonium bromide] | 2.5 Log10 TCID 50/0.1 ml | 1.75 Log10 TCID 50/0.1 ml
2 | CCCCCCCCCCCCCCCC[n+]1ccccc1.[Cl-] [CPC, cetylpyridinum chloride] | 1.6 Log10 TCID 50/0.1 ml | 1.6 Log10 TCID 50/0.1 ml
